Test results: EP4603105A1, “PHARMACEUTICAL COMPOSITION CONTAINING CYCLIC COMPOUND HAVING SELECTIVE KRAS INHIBITORY EFFECT AGAINST HRAS AND NRAS” (CHUGAI SEIYAKU KABUSHIKI KAISHA, priority 2022, dated 2024)

Assays:
[1] = biological target: HRAS wild-type protein (Homo sapiens, UniProt P01112); assay: Binding to HRAS by surface plasmon resonance (SPR), KD and KD ratio to KRAS; conditions: ratio of KD for HRAS wild-type protein to KD for KRAS
Summary of the method: (§1)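 Biotinylated GDP-bound RAS was captured at about 100–300 RU. Running buffer: HBS pH 7.4, 10 mM MgCl2, 10 µM GDP, 1 mM DTT, 0.01% Tween 20, 4% DMSO.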

[2] = test system: human lung cancer strain NCI-H441; format: cell-based
Summary of the method: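 Step one: dispense the test compound in serial DMSO dilutions. Step three: add the reagent and measure […].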

[3] = biological target: GDP-bound KRAS wild-type protein (Homo sapiens, UniProt P01116); assay: Binding to KRAS by surface plasmon resonance (SPR), dissociation constant KD; conditions: 1:1 binding model
Summary of the method: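 Each cycle, GDP-bound biotin-Avi RAS was captured (~100–300 RU), compound concentrations were injected low to high for 75 s each at 100 µL/min, then the chip was regenerated. Buffer: HBS pH 7.4, 10 mM MgCl2, 10 µM GDP, 1 mM DTT, 4% DMSO; 30°C. KD from a 1:1 binding model.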

[4] = biological target: GDP-bound NRAS wild-type protein (Homo sapiens, UniProt P01111); assay: Binding to NRAS by surface plasmon resonance (SPR), KD and KD ratio to KRAS; conditions: ratio of KD for GDP-bound NRAS wild-type protein to KD for KRAS
Summary of the method: as §1

GDP-bound KRAS wild-type protein, sequence (P01116 1-188 isoform P01116-2): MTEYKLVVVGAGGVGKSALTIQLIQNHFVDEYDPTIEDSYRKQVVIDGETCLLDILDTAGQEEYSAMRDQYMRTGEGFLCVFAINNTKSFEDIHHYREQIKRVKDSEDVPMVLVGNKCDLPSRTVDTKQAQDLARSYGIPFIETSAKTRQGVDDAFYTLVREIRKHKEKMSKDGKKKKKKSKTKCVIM
GDP-bound NRAS wild-type protein, sequence (P01111 whole entry): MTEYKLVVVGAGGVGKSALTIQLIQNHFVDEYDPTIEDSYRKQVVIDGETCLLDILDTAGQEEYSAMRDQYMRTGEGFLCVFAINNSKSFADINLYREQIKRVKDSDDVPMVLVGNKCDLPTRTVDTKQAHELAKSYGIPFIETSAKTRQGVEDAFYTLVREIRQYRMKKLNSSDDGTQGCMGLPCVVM
HRAS wild-type protein, sequence (P01112 whole entry): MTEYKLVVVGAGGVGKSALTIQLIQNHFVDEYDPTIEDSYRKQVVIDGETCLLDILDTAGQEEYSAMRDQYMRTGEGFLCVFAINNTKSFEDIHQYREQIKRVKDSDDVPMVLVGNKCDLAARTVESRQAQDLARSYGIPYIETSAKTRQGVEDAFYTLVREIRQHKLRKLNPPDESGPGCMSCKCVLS

Row | SMILES | HRAS /KRAS [1] | IC50 [2] | Kd [3] | NRAS /KRAS [4]
1 | CCO[C@@H]1C[C@H]2C(=O)N(C)C3(CC(C)(C)C3)C(=O)N(C)[C@@H](C3CCCC3)C(=O)N(C)[C@H](C(=O)N(C)C)CC(=O)N(C)[C@H]3CCCCCc4ccc(cc4)C[C@@H](C(=O)N(C)CC(=O)N[C@@H](CCc4ccc(C(F)(F)F)c(OC)c4)C(=O)N2C1)N1CC/C=C\C[C@@H](C1=O)N(C)C(=O)CN(C)C(=O)[C@H]([C@@H](C)CC)NC3=O [PP3091] | B (a compound having 3 or more and less than 10 is denoted as B) | 1.2 nM | 0.031 nM | A (a compound having 10 or more and less than 20 is denoted as A)
2 | CCC[C@H]1C(=O)N[C@@H]([C@@H](C)CC)C(=O)N(C)CC(=O)N(C)[C@H]2C/C=C\CCN(C2=O)[C@@H](Cc2ccc(C(F)(F)F)cc2)C(=O)N(C)CC(=O)N[C@@H](CCc2ccc(C(F)(F)F)c(F)c2)C(=O)N2C[C@H](F)C[C@H]2C(=O)NC2(CC(C)(C)C2)C(=O)N(C)[C@@H](C2CCCCC2)C(=O)N(C)[C@H](C(=O)N(C)C)CC(=O)N1C [PP3122] | B (a compound having 3 or more and less than 10 is denoted as B) | 11.1 nM | 0.4 nM | A (a compound having 10 or more and less than 20 is denoted as A)
3 | CCCC[C@H]1C(=O)N[C@@H]([C@@H](C)CC)C(=O)N(C)CC(=O)N(C)[C@H]2C/C=C\CCN(C2=O)[C@@H](Cc2ccc(C(F)(F)F)cc2)C(=O)N(C)CC(=O)N[C@@H](CCc2ccc(C(F)(F)F)cc2Cl)C(=O)N2C[C@H](F)C[C@H]2C(=O)NC2(CC(C)(C)C2)C(=O)N(C)[C@@H](C2CCC2)C(=O)N(C)[C@H](C(=O)N(C)C)CC(=O)N1C [PP3124] | A (a compound having 10 or more and less than 20 is denoted as A) | 39 nM | 1.1 nM | A (a compound having 10 or more and less than 20 is denoted as A)
4 | C#CC[C@H]1C(=O)N[C@@H]([C@@H](C)CC)C(=O)N(C)CC(=O)N(C)[C@H]2C/C=C\CCN(C2=O)[C@@H](Cc2ccc(C(F)(F)F)cc2)C(=O)N(C)CC(=O)N[C@@H](CCc2ccc(C(F)(F)F)c(OC)c2)C(=O)N2C[C@H](F)C[C@H]2C(=O)NC2(CC(C)(C)C2)C(=O)N(C)[C@@H](CCC=C)C(=O)N(C)[C@H](C(=O)N(C)C)CC(=O)N1C [PP3126] | A (a compound having 10 or more and less than 20 is denoted as A) | 116 nM | 0.81 nM | AA (a compound having 20 or more is denoted as AA)
5 | C#CC[C@H]1C(=O)N[C@@H]([C@@H](C)CC)C(=O)N(C)CC(=O)N(C)[C@H]2C/C=C\CCN(C2=O)[C@@H](Cc2ccc(C(F)(F)F)cc2)C(=O)N(C)CC(=O)N[C@@H](CCc2ccc(C(F)(F)F)c(OC)c2)C(=O)N2C[C@H](OCC)C[C@H]2C(=O)NC2(CCCC2)C(=O)N(C)[C@@H](C2CCC2)C(=O)N(C)[C@H](C(=O)N2CCCCC2)CC(=O)N1C [PP3131] | A (a compound having 10 or more and less than 20 is denoted as A) | 157 nM | 2.8 nM | A (a compound having 10 or more and less than 20 is denoted as A)
6 | C#CC[C@H]1C(=O)N[C@@H]([C@@H](C)CC)C(=O)N(C)CC(=O)N(C)[C@H]2C/C=C\CCN(C2=O)[C@@H](Cc2ccc(C(F)(F)F)cc2)C(=O)N(C)CC(=O)N[C@@H](CCc2ccc(C(F)(F)F)c(OC)c2)C(=O)N2C[C@H](F)C[C@H]2C(=O)NC2(CC(C)(C)C2)C(=O)N(C)[C@@H](CCC=C)C(=O)N(C)[C@H](C(=O)N2CCCC2)CC(=O)N1C [PP3132] | A (a compound having 10 or more and less than 20 is denoted as A) | 245 nM | 3.5 nM | A (a compound having 10 or more and less than 20 is denoted as A)
7 | C#CC[C@H]1C(=O)N[C@@H]([C@@H](C)CC)C(=O)N(C)CC(=O)N(C)[C@H]2C/C=C\CCN(C2=O)[C@@H](Cc2ccc(C(F)(F)F)cc2)C(=O)N(C)CC(=O)N[C@@H](CCc2ccc(C(F)(F)F)c(OC)c2)C(=O)N2C[C@H](C)[C@H]2C(=O)NC2(CCC2)C(=O)N(C)[C@@H](C2CCCC2)C(=O)N(C)[C@H](C(=O)N2CCOCC2)CC(=O)N1C [PP3133] | A (a compound having 10 or more and less than 20 is denoted as A) | 220 nM | 1.1 nM | A (a compound having 10 or more and less than 20 is denoted as A)
8 | CC[C@H](C)[C@@H]1NC(=O)[C@H](COC)N(C)C(=O)C[C@@H](C(=O)N(C)C)N(C)C(=O)[C@H](C2CCCC2)N(C)C(=O)C2(CC(C)(C)C2)NC(=O)CNC(=O)[C@H](CCc2ccc(C(F)(F)F)c(Cl)c2)NC(=O)CN(C)C(=O)[C@H](Cc2ccc(C(F)(F)F)cc2)N2CC/C=C\C[C@@H](C2=O)N(C)C(=O)CN(C)C1=O [PP3134] | A (a compound having 10 or more and less than 20 is denoted as A) | 812 nM | 0.33 nM | AA (a compound having 20 or more is denoted as AA)
9 | CC[C@H](C)[C@@H]1NC(=O)[C@H](COC)N(C)C(=O)C[C@@H](C(=O)N(C)CC)N(C)C(=O)[C@H](C2CCCC2)N(C)C(=O)C2(CC(C)(C)C2)NC(=O)[C@@H]2CC(F)(F)CN2C(=O)[C@H](CCc2ccc(C(F)(F)F)c(Cl)c2)NC(=O)CN(C)C(=O)[C@H](Cc2ccc(C(F)(F)F)cc2)N2CC/C=C\C[C@@H](C2=O)N(C)C(=O)CN(CC)C1=O [PP3135] | A (a compound having 10 or more and less than 20 is denoted as A) | 27.6 nM | 1.1 nM | A (a compound having 10 or more and less than 20 is denoted as A)
10 | CC[C@H](C)[C@@H]1NC(=O)[C@H](COC)N(C)C(=O)C[C@@H](C(=O)N(C)CC)N(C)C(=O)[C@H](C2CCCC2)N(C)C(=O)C2(CC(C)(C)C2)NC(=O)[C@@H]2CC(F)(F)CN2C(=O)[C@H](CCc2ccc(C(F)(F)F)c(OC)c2)NC(=O)CN(C)C(=O)[C@H](Cc2ccc(C(F)(F)F)cc2)N2CC/C=C\C[C@@H](C2=O)N(C)C(=O)[C@@H]2CCN2C1=O [PP3136] | B (a compound having 3 or more and less than 10 is denoted as B) | 47 nM | 0.63 nM | B (a compound having 3 or more and less than 10 is denoted as B)
11 | CC[C@H](C)[C@@H]1NC(=O)[C@H](COC)NC(=O)C[C@@H](C(=O)N(C)CC)N(C)C(=O)[C@H](C2CCCC2)N(C)C(=O)C2(CC(C)(C)C2)NC(=O)[C@@H]2C[C@@H](F)CN2C(=O)[C@H](CCc2ccc(C(F)(F)F)c(OC)c2)NC(=O)CN(C)C(=O)[C@H](Cc2ccc(C(F)(F)F)cc2)N2CC/C=C\C[C@@H](C2=O)N(C)C(=O)CN(C)C1=O [PP3137] | A (a compound having 10 or more and less than 20 is denoted as A) | 23 nM | 0.084 nM | A (a compound having 10 or more and less than 20 is denoted as A)
12 | CC[C@H](C)[C@@H]1NC(=O)[C@H](COC)N(C)C(=O)C[C@@H](C(=O)N(C)CC)N(C)C(=O)[C@H](C2CCCC2)N(C)C(=O)C2(CC(C)(C)C2)NC(=O)[C@@H]2C[C@@H](F)CN2C(=O)[C@H](CCc2cc(F)cc(F)c2)NC(=O)CN(C)C(=O)[C@H](Cc2ccc(C(F)(F)F)cc2)N2CC/C=C\C[C@@H](C2=O)N(C)C(=O)CN(C)C1=O [PP3138] | A (a compound having 10 or more and less than 20 is denoted as A) | 507 nM | 4.4 nM | A (a compound having 10 or more and less than 20 is denoted as A)
13 | CCO[C@@H]1C[C@H]2C(=O)NC3(CC(C)(C)C3)C(=O)N(C)[C@@H](C3CCCC3)C(=O)N(C)[C@H](C(=O)N(C)CC)CC(=O)N(C)[C@@H](CC(C)C)C(=O)N[C@@H]([C@@H](C)CC)C(=O)N(C)CC(=O)N(C)[C@H]3C/C=C\CCN(C3=O)[C@@H](Cc3ccc(C(F)F)cc3)C(=O)N(C)CC(=O)N[C@@H](CCc3ccc(C(F)(F)F)c(CC)c3)C(=O)N2C1 [PP3141] | A (a compound having 10 or more and less than 20 is denoted as A) | 9.8 nM | 0.25 nM | A (a compound having 10 or more and less than 20 is denoted as A)
14 | CCO[C@@H]1C[C@H]2C(=O)NC3(CC(C)(C)C3)C(=O)N(C)[C@@H](C3CCCC3)C(=O)N(C)[C@H](C(=O)N(C)CC)CC(=O)N(C)[C@@H](CC(C)C)C(=O)N[C@@H]([C@@H](C)CC)C(=O)N(C)CC(=O)N(C)[C@H]3C/C=C\CCN(C3=O)[C@@H](Cc3ccc(C(F)F)cc3)C(=O)N(C)CC(=O)N[C@@H](CCc3cc(F)c(Cl)c(OC)c3)C(=O)N2C1 [PP3142] | A (a compound having 10 or more and less than 20 is denoted as A) | 39.3 nM | 0.44 nM | A (a compound having 10 or more and less than 20 is denoted as A)
